ChEMBL document CHEMBL1136234, “Cyclohexanedione herbicides are inhibitors of rat heart acetyl-CoA carboxylase” (Bioorg Med Chem Lett, 2003)

Molecular target: T1, Acetyl-CoA carboxylase 1 (Rattus norvegicus, UniProt P11497)
Assay: Inhibitory concentration against rat heart ACC by the carboxylation of acetyl-CoA with [14C]HCO3- to form [14C]-malonyl CoA

SMILES	IC50 [µM]
C=CCO/N=C(\CCC)C1=C(O)C(C(=O)OC)C(C)(C)CC1=O (stereo unspecified) [ALLOXYDIM]	> 100

Molecular target: T1, Acetyl-CoA carboxylase 1
Assay: Inhibitory concentration against rat heart ACC by the carboxylation of acetyl-CoA with [14C]-HCO3- to form [14C]-malonyl CoA; 18-40 uM

SMILES	IC50 [µM]
CCC/C(=N\OCC)C1=C(O)CC(C2CCCSC2)CC1=O (stereo unspecified)	40
CCSC(C)CC1CC(=O)C(/C(CC)=N/OC/C=C/Cl)=C(O)C1 (stereo unspecified) [CLETHODIM]	40
CCC/C(=N\OCC)C1=C(O)CC(CC(C)SCC)CC1=O (stereo unspecified) [SETHOXYDIM]	40
CCO/N=C(\CC)C1=C(O)CC(c2c(C)cc(C)cc2C)CC1=O (stereo unspecified) [TRALKOXYDIM]	40
CC/C(=N\OC/C=C/Cl)C1=C(O)CC(C2CCOCC2)CC1=O (stereo unspecified) [TEPRALOXYDIM]	40
